Numbering of substitutions follows the chain as printed. Read-outs that look alike come from different tables or passages of the source.
How the values were obtained:
[1] = biological target: T1, P2X2aR (Rattus norvegicus, UniProt P49653); assay type: cell-based; conditions: for effect on the ATP-gated current: 10 μM metal pre-applied 1 min and co-applied with 30 μM ATP; for washout period sufficient to restore normal response: after 10 μM metal
T1 sequence (P49653 1-472): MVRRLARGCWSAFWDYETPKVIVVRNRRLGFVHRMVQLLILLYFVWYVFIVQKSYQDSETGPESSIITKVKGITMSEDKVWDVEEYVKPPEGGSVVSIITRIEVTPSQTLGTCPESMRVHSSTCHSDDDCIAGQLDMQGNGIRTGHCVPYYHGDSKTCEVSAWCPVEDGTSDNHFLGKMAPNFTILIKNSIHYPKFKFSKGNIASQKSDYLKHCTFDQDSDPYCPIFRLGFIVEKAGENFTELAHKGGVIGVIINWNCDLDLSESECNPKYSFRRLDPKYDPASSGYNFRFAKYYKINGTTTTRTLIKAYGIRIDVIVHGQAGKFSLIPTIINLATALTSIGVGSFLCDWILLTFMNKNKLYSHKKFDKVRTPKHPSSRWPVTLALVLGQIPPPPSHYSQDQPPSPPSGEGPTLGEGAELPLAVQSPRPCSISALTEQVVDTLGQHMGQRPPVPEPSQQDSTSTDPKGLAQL

[2] = biological target: T2, P2X4R (Rattus norvegicus, UniProt P51577); assay type: cell-based; conditions: oocytes; for effect on ATP-induced currents: 10 μM metal pre-applied 1 min and co-applied with 10 μM ATP
T2 sequence (P51577 1-388): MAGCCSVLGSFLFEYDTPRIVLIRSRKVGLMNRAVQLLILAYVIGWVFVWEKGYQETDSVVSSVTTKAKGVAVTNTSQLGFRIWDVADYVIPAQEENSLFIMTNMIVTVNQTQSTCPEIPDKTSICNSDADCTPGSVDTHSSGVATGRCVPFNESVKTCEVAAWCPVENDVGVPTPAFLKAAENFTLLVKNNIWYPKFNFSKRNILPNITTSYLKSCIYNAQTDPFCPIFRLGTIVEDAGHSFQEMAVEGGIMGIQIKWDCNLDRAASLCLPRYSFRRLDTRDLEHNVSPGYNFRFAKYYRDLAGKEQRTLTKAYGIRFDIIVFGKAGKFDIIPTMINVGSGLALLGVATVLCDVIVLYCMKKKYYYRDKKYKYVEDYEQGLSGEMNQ

[3] = biological target: T3, P2X2bR (Rattus norvegicus, UniProt P49653, DEL370-438); assay type: cell-based; conditions: oocytes
T3 sequence (P49653 with tags, fused parts or gaps DEL370-438): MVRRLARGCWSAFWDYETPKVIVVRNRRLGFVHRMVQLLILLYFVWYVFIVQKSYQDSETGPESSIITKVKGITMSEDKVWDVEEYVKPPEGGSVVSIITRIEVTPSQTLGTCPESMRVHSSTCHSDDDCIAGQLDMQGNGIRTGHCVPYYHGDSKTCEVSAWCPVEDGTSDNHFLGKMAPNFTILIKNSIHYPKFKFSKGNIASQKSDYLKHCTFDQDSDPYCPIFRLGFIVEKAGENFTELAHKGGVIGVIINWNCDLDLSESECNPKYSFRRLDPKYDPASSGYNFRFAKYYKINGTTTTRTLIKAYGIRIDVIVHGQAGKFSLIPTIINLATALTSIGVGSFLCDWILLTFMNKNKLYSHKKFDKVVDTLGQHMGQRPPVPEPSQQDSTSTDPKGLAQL

[4] = biological target: T1, P2X2aR; assay: ATP-evoked currents, whole-cell patch clamp, HEK293 cells expressing P2X2aR; assay type: cell-based
[5] = biological target: T3, P2X2bR; assay type: cell-based; conditions: HEK293 cells
[6] = tested on: P2X2R; conditions: after application; ref Mason et al. (2004); cited from earlier work
[7] = biological target: T4, P2X2a-C430A (Rattus norvegicus, UniProt P49653, C430A); assay type: cell-based; conditions: oocytes; for potentiation compared to wild type P2X2aR: zinc or copper
T4 sequence (P49653 1-472 C430A): T1 sequence (P49653 1-472) with C430A

[8] = biological target: T5, P2X2a-C430S (Rattus norvegicus, UniProt P49653, C430S); assay type: cell-based; conditions: oocytes; for potentiation compared to wild type P2X2aR: copper or zinc
T5 sequence (P49653 1-472 C430S): T1 sequence (P49653 1-472) with C430S

[9] = tested on: P2X4/2a chimera; assay type: cell-based, rat; conditions: oocytes; for effect on deactivation constant: copper or zinc
[10] = tested on: P2X4/2b chimera; assay type: cell-based, rat; conditions: oocytes
[11] = biological target: T5, P2X2a-C430S; assay type: cell-based; conditions: HEK293 cells
[12] = saturating concentration of ATP

SMILES: O[C@@H](CS)[C@@H](O)CS (racemic) [DTT, dithiothreitrol]
- effect on ATP-evoked currents ([1]; 1 mM DTT alone, oocytes): did not modify the ATP-evoked currents
- effect of co-application with H2O2 ([1]; DTT co-applied with H2O2, oocytes): abolished the effect of H2O2
- effect on receptor activity ([2]; DTT alone): did not modify the receptor activity
- effect of co-application with H2O2 ([2]; DTT co-applied with H2O2): the inhibition was completely obliterated

SMILES: C=C(C)[C@H]1Cc2c(ccc3c2O[C@@H]2COc4cc(OC)c(OC)cc4[C@@H]2C3=O)O1 [rotenone]
- fold-increase of the ATP-evoked currents ([1]; 600 nM rotenone, 10 min prior to ATP, oocytes): 1.75 ± 0.38 fold
- potentiation by rotenone ([3]; 600 nM): not observed
- fold-increase of the ATP-evoked currents ([4]; 600 nM rotenone): 1.52 ± 0.08 fold
- potentiation by rotenone ([5]; 600 nM): not observed
- effect on P2X2R-mediated currents [6]: transient increase followed by sustained inhibition

SMILES: CSS(C)(=O)=O [MMTS, Methylmethane-thiosulfonate]
- effect on H2O2 potentiation [1]: abolished
- current increase by agent alone (transient and reversible) ([1]; MMTS alone, oocytes, data not shown): 20%
- effect on mercury-induced potentiation ([1]; MMTS treatment, oocytes): abolished

SMILES: [Cl][Cu][Cl] [copper]
- increase of 10–90% deactivation time [1]: 2 fold
- effect on the ATP-gated current ([1]; oocytes): potentiated
- washout period sufficient to restore normal response ([1]; oocytes): ≤ 10 min
- potentiation compared to wild type P2X2aR [7]: not significantly altered
- potentiation compared to wild type P2X2aR [8]: not changed
- inhibition of ATP-evoked currents ([9]; 10 μM copper, 1 μM ATP): 50%
- effect on deactivation constant [9]: did not modify significantly
- decrease of maximal ATP response ([9]; copper, not shown): 40%
- inhibition of ATP-evoked currents ([10]; 10 μM copper, 1 μM ATP): 55 ± 12%
- effect on ATP-induced currents [2]: inhibited
- increase of ATP-evoked currents ([4]; 10 μM metal, ATP ~EC15): 4.5 ± 0.5 fold
- increase of ATP-gated currents ([5]; 10 μM metal, ATP ~EC15): 5.7 ± 1.5 fold
- increase of ATP-gated currents ([11]; 10 μM metal, ATP ~EC15): 4.2 ± 0.9 fold

SMILES: [Cl-].[Cl-].[Zn+2] [zinc]
- effect on the ATP-gated current ([1]; oocytes): potentiated
- washout period sufficient to restore normal response ([1]; oocytes): ≤ 10 min
- potentiation compared to wild type P2X2aR [7]: not significantly altered
- potentiation compared to wild type P2X2aR [8]: not changed
- potentiation of 1 μM ATP-induced current ([9]; 10 μM metal, 1 μM ATP): 2.6 ± 0.3 fold
- effect on deactivation constant [9]: did not modify significantly
- potentiation of receptor activity ([10]; 10 μM zinc, 1 μM ATP): 2.6 ± 0.3 fold
- effect on ATP-induced currents [2]: potentiated

SMILES: CO/C(=C/C(N)=O)[C@H](C)[C@H](/C=C/c1csc(-c2csc([C@@H](C)/C=C/C=C/C(C)C)n2)n1)OC [myxothiazol]
- effect of higher concentrations on receptor activity (biphasic) ([1]; higher concentrations, data not shown, expression system not given): inhibited the receptor activity
- maximal potentiation of ATP-evoked currents ([1]; myxothiazol applied 10 min prior to ATP, oocytes): 1.95 ± 0.18 fold
- sensitivity to myxothiazol [3]: insensitive
- increase of ATP-evoked currents ([4]; 100 nM myxothiazol, 3 μM ATP): 1.95 ± 0.14 fold
- sensitivity to myxothiazol [5]: insensitive
- effect on P2X2R-mediated currents [6]: transient increase followed by sustained inhibition

SMILES: Nc1ncnc2c1ncn2[C@@H]1O[C@H](COP(=O)([O-])OP(=O)([O-])OP(=O)([O-])O)[C@@H](O)[C@H]1O.[Na+].[Na+].[Na+] [ATP, ATP tri sodium salt]
- 10–90% deactivation time ([1]; ATP alone (before mercury), oocytes): 4.4 ± 0.2 s
- EC50 ([1]; ATP alone, Xenopus laevis oocytes, Hill equation): 33.3 ± 2.5 µM
- nH ([1]; ATP, oocytes, Hill equation): 1.4 ± 0.1
- Imax ([1]; saturating concentration of ATP, oocytes): 12.1 ± 2.9 μA
- EC50 ([3]; ATP alone, Hill equation): 59.2 ± 9.1 µM
- nH ([3]; ATP): 1.4 ± 0.3
- Imax [3, 12]: 15.6 ± 1.9 μA
- EC50 ([7]; ATP alone, Hill equation): 293 ± 70 µM
- nH ([7]; ATP): 1.2 ± 0.3
- reduction of ATP potency compared to the wild type [7]: 10 fold
- Imax [7, 12]: 1.2 ± 0.5 μA
- EC50 ([8]; ATP alone, Hill equation): 45 ± 6.3 µM
- nH ([8]; ATP): 1.4 ± 0.3
- Imax [8, 12]: 11.8 ± 0.8 μA
- 10–90% deactivation time ([9]; ATP alone (before mercury)): 12.6 ± 1.1 s
- EC50 ([9]; ATP alone, Hill equation): 4.8 ± 0.6 µM
- nH ([9]; ATP): 0.9 ± 0.2
- Imax [9, 12]: 6.7 ± 1.5 μA
- EC50 ([10]; ATP alone, Hill equation): 4.6 ± 2.4 µM
- nH ([10]; ATP): 1.2 ± 0.1
- Imax [10, 12]: 14.0 ± 1.5 μA
- EC50 ([2]; ATP alone, Hill equation): 11 ± 2.6 µM
- Imax [2, 12]: 4.7 ± 0.6 μA
- nH ([4]; ATP): 1.2 ± 0.2
- EC50 ([4]; ATP alone, Hill equation): 10.2 ± 1.3 µM
- Imax [4, 12]: 4.6 ± 0.3 nA
- EC50 ([5]; ATP alone, Hill equation): 7.6 ± 1.3 µM
- nH ([5]; ATP): 1.1 ± 0.3
- Imax [5, 12]: 4.2 ± 0.9 nA
- EC50 ([11]; ATP alone, Hill equation): 18.1 ± 3.3 µM
- nH ([11]; ATP): 1.5 ± 0.6
- Imax [11, 12]: 5.4 ± 0.9 nA

Source: publication PMC6501587 (The Journal of neuroscience : the official journal of the …, 2009)
